In article PMC9916978, “Enantioselective Human Serum Albumin Binding of Apremilast: Liquid Chromatographic, Fluorescence and Molecular Docking Study” (International Journal of Molecular Sciences, 2023):

Target: T1, human serum albumin (HSA) (Homo sapiens, UniProt P02768)
T1 construct: purchased Chiral Technologies Inc., a subsidiary of Daicel Chemical Industries Ltd
Assay: Fluorescence quenching titration of HSA, stability constants
Format: binding
Conditions: 10 mM phosphate buffer pH 7, 25 °C, excitation 280 nm
Method: The observed fluorescence intensities of HSA and the HSA–APR complexes at increasing APR concentrations were plotted against the total concentration of APR in the solution, and the stability constants were calculated according to Equation (18) by nonlinear parameter fitting.
The fluorescence measurements were carried out on a Jasco J-815 spectropolarimeter with a connected CDF-426L fluorescence detector and a temperature-controlled 10 mm cuvette holder (Jasco, Tokyo, Japan), thermostated to 25 °C with a Lauda water bath circulation thermostat (Lauda Brinkmann, Königshofen, Germany). Spectra Manager software (ver.: 2.08.04) was used for data analysis. The fluorescence analysis was performed with an excitation spectrum of 260–300 nm and detection of the cumulative fluorescence spectrum. […] A volume of 3 mL of the HSA stock solution with an HSA concentration of 0.32 μM was titrated with 2.5–30 μL of S- and, separately, R-APR solutions prepared at 3.75 mg mL^−1 in MeOH, which equals to a range of 6.8–80.6 μM of APR in the measured solution.
The stability constants of both enantiomers were calculated. […] Note that since the fluorescence signal of the ligand (APR) was subtracted for each sample, (IAPR) could be excluded from this equation (8) Iobs.=IHSA·χHSA+IAPR−HSA·χAPR−HSA where ΧHSA is the mole fraction of free HSA, while ΧAPR-HSA is the mole fraction of the APR-HSA complex. […]

T1 sequence (P02768 25-609): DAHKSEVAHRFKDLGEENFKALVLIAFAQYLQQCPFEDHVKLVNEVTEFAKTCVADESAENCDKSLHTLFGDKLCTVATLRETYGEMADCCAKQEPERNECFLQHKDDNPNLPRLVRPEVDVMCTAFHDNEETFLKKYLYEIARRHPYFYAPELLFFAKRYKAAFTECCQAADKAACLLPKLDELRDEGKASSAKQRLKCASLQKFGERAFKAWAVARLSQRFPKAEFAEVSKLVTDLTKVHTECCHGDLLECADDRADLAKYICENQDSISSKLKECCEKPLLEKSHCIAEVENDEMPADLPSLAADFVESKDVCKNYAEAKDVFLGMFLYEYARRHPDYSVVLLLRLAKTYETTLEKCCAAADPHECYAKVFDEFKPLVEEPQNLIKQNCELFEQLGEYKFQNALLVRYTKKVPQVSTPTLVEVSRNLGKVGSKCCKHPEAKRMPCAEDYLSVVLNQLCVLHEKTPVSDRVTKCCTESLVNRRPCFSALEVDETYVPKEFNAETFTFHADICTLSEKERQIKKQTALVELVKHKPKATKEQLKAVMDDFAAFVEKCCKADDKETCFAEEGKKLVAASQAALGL

| SMILES | stability constant K of the enantiomer–HSA complex |
| --- | --- |
| CCOc1cc([C@H](CS(C)(=O)=O)N2C(=O)c3cccc(NC(C)=O)c3C2=O)ccc1OC [R-APR] | 6450 M⁻¹ |
| CCOc1cc([C@@H](CS(C)(=O)=O)N2C(=O)c3cccc(NC(C)=O)c3C2=O)ccc1OC [S-APR, apremilast] | 10400 M⁻¹ |
